Earlier results, collected in publication PMC11876601 (Molecular Systems Biology, 2025).

Key:
[1] = molecular target: CSNK2B; details: 5 cell line mix lysate, Kinobeads ε, ref Reinecke et al. (2023), cited from earlier work
[2] = system: YES1; set-up: method as in Reinecke et al. (2023); details: YES1, 5 cell line mix lysate, Kinobeads ε, ref Reinecke et al. (2023), cited from earlier work
[3] = system: FLT4; set-up: method as in Reinecke et al. (2023); details: FLT4, 5 cell line mix lysate, Kinobeads ε, ref Reinecke et al. (2023), cited from earlier work
[4] = system: TAOK3; set-up: method as in Reinecke et al. (2023); details: TAOK3, 5 cell line mix lysate, Kinobeads ε, ref Reinecke et al. (2023), cited from earlier work
[5] = system: TAOK1; set-up: method as in Reinecke et al. (2023); details: TAOK1, 5 cell line mix lysate, Kinobeads ε, ref Reinecke et al. (2023), cited from earlier work
[6] = molecular target: PDGFRB; set-up: method as in Reinecke et al. (2023); details: 5 cell line mix lysate, Kinobeads ε, ref Reinecke et al. (2023), cited from earlier work
[7] = system: MAP3K5; set-up: method as in Reinecke et al. (2023); details: MAP3K5, 5 cell line mix lysate, Kinobeads ε, ref Reinecke et al. (2023), cited from earlier work
[8] = system: TBKBP1; set-up: method as in Klaeger et al. (2017); details: lysate 4 cell line mix (Colo205, K-562, MV-4-11, and SK-N-BE(2)), Kinobeads y, ref Klaeger et al. (2017); cited from earlier work
[9] = system: TGFBR2; set-up: method as in Klaeger et al. (2017); details: lysate 4 cell line mix (Colo205, K-562, MV-4-11, and SK-N-BE(2)), Kinobeads y, ref Klaeger et al. (2017); cited from earlier work
[10] = system: MAP4K3; set-up: method as in Klaeger et al. (2017); details: lysate 4 cell line mix (Colo205, K-562, MV-4-11, and SK-N-BE(2)), Kinobeads y, ref Klaeger et al. (2017); cited from earlier work
[11] = system: MAPK9; set-up: method as in Klaeger et al. (2017); details: lysate 4 cell line mix (Colo205, K-562, MV-4-11, and SK-N-BE(2)), Kinobeads y, ref Klaeger et al. (2017); cited from earlier work
[12] = system: MAP2K5; set-up: method as in Klaeger et al. (2017); details: lysate 4 cell line mix (Colo205, K-562, MV-4-11, and SK-N-BE(2)), Kinobeads y, ref Klaeger et al. (2017); cited from earlier work
[13] = system: PRKAB2; set-up: method as in Klaeger et al. (2017); details: lysate 4 cell line mix (Colo205, K-562, MV-4-11, and SK-N-BE(2)), Kinobeads y, ref Klaeger et al. (2017); cited from earlier work
[14] = system: RPS6KA1; set-up: method as in Klaeger et al. (2017); details: lysate 4 cell line mix (Colo205, K-562, MV-4-11, and SK-N-BE(2)), Kinobeads y, ref Klaeger et al. (2017); cited from earlier work
[15] = system: MAP4K2; set-up: method as in Klaeger et al. (2017); details: MAP4K2, 4 cell line mix lysate, Kinobeads y, ref Klaeger et al. (2017); cited from earlier work
[16] = system: RASSF5; set-up: method as in Klaeger et al. (2017); details: RASSF5, 4 cell line mix lysate, Kinobeads y, ref Klaeger et al. (2017); cited from earlier work

Question: For `COc1cc(N2CCC(N3CCN(C)CC3)CC2)ccc1Nc1ncc(Cl)c(Nc2ccccc2P(C)(C)=O)n1` [Brigatinib], which Kd ([1]; read-out: KDapp) is on record?
Answer: The Kd was 508 nM.

Question: What about the EC50 [1] of the same compound?
Answer: The EC50 was 508 nM.

Question: And the pKDapp [1]?
Answer: The pKDapp was 6.29.

Question: And the EC50 [2]?
Answer: The EC50 was 821 nM.

Question: What about the pKDapp [2] of the same compound?
Answer: Its pKDapp is 6.47.

Question: And the Kd ([2]; read-out: KDapp)?
Answer: The Kd was 339 nM.

Question: And the EC50 [3]?
Answer: Its EC50 is 369 nM.

Question: And the pKDapp [3]?
Answer: Its pKDapp is 6.43.

Question: What about the Kd ([3]; read-out: KDapp) of the same compound?
Answer: The Kd was 369 nM.

Question: And the EC50 [4]?
Answer: Its EC50 is 690 nM.

Question: And the pKDapp [4]?
Answer: Its pKDapp is 6.27.

Question: And the Kd ([4]; read-out: KDapp)?
Answer: The Kd was 534 nM.

Question: What about the EC50 [5] of the same compound?
Answer: Its EC50 is 847 nM.

Question: And the pKDapp [5]?
Answer: The pKDapp was 6.25.

Question: And the Kd ([5]; read-out: KDapp)?
Answer: The Kd was 563 nM.

Question: What about the Kd ([6]; read-out: KDapp) of the same compound?
Answer: Its Kd is 737 nM.

Question: And the EC50 [6]?
Answer: The EC50 was 843 nM.

Question: And the pKDapp [6]?
Answer: The pKDapp was 6.13.

Question: What about the EC50 [7] of the same compound?
Answer: The EC50 was 970 nM.

Question: And the pKDapp [7]?
Answer: The pKDapp was 6.11.

Question: What about the Kd ([7]; read-out: KDapp) of the same compound?
Answer: Its Kd is 776 nM.

Question: Which EC50 [8] does the source give for `C[C@]12O[C@H](C[C@]1(O)CO)n1c3ccccc3c3c4c(c5c6ccccc6n2c5c31)CNC4=O` [Lestaurtinib] here?
Answer: Its EC50 is 1010 nM.

Question: What about the EC50 [11] of the same compound?
Answer: The EC50 was 2470 nM.

Question: What about the EC50 [12] of the same compound?
Answer: The EC50 was 2050 nM.

Question: And the EC50 [13]?
Answer: The EC50 was 3520 nM.

Question: What about the EC50 [14] of the same compound?
Answer: Its EC50 is 3290 nM.

Question: What about the EC50 [16] of the same compound?
Answer: Its EC50 is 73 nM.
